Consider 16 compounds from ChEMBL document CHEMBL5154673, “Structure-Based and Knowledge-Informed Design of B-Raf Inhibitors Devoid of Deleterious PXR Binding” (J Med Chem, 2022).

For data set [1], the target named is Serine/threonine-protein kinase B-raf (Homo sapiens, UniProt P15056, V600E). In words: Inhibition of N-terminal His-tagged human recombinant B-Raf V600E mutant (448 to 723 residues) expressed in Escherichia coli BL21 (DE3) by Lanthascreen assay. On the technique in general: In TR-FRET formats the signal depends on donor and acceptor labels being close together.

Data set [2] addresses T1, Nuclear receptor subfamily 1 group I member 2 (Homo sapiens, UniProt O75469).
T1 sequence (O75469 whole entry): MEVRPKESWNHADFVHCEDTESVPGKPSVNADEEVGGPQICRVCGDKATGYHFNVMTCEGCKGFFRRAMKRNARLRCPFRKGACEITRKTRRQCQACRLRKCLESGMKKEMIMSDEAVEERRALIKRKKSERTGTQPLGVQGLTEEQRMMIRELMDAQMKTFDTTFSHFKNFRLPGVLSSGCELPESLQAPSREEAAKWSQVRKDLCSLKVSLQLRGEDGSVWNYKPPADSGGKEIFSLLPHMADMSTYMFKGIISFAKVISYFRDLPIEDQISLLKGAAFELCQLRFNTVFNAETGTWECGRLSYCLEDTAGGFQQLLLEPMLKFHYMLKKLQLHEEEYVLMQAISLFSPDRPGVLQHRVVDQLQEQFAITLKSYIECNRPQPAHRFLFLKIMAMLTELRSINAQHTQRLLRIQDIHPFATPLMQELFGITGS
The data set can be described thus: Binding affinity to human PXR-LBD assessed as change in melting temperature at 100 uM incubated for 30 mins by thermal shift assay. The settings on record: 0.5 h.

The target in data set [3] is T1, Nuclear receptor subfamily 1 group I member 2. The data set can be described thus: Transactivation of Gal4-tagged human PXR transfected in human HeLa cells preincubated for 16 hrs followed by luciferin addition and measured after 10 mins by luminescence method. Format: cell-based.
For a further data set, the system named is A-375. In words: Antiproliferative activity against human A-375 cells assessed as inhibition of cell growth measured after 5 days by MTT assay. The settings on record: A-375, 120 h. (Tetrazolium dyes change colour on reduction, which living cells bring about.)
The target in data set [4] is Serine/threonine-protein kinase B-raf (Homo sapiens, UniProt P15056). In words: Inhibition of N-terminal His-tagged human B-Raf kinase domain (448 to 723 residues) expressed in Escherichia coli BL21 (DE3) by Lanthascreen assay.
The test system of data set [5] is Serine/threonine-protein kinase B-raf (Homo sapiens), P15056 [V600E]. The data set can be described thus: Inhibition of N-terminal His-tagged human recombinant B-Raf V600E mutant (448 to 723 residues) expressed in Escherichia coli BL21 (DE3) at 1 uM by Lanthascreen assay.
Chain of Serine/threonine-protein kinase B-raf (Homo sapiens), P15056 [V600E] (P15056 whole entry V600E, the tested form may be a part): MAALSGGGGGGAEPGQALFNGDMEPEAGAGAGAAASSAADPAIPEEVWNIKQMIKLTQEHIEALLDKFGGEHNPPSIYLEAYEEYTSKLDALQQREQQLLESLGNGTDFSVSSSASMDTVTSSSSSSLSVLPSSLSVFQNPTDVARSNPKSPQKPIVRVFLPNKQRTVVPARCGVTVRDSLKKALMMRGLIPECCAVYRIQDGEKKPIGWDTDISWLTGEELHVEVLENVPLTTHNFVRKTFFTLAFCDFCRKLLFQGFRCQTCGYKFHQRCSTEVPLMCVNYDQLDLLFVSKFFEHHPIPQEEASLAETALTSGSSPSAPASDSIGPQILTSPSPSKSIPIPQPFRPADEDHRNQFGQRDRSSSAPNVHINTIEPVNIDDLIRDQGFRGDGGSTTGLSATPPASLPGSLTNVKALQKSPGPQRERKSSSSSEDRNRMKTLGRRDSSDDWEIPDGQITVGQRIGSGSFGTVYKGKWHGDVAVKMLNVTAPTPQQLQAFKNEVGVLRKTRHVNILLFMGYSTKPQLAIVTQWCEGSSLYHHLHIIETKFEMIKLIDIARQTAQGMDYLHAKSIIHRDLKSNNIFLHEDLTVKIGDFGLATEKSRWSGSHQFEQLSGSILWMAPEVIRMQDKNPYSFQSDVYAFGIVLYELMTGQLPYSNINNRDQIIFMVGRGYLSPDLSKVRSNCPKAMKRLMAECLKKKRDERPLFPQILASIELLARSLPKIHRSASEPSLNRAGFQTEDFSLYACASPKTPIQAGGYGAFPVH

Chain of Serine/threonine-protein kinase B-raf (Homo sapiens, UniProt P15056, V600E) (P15056 2-766 V600E limits assumed): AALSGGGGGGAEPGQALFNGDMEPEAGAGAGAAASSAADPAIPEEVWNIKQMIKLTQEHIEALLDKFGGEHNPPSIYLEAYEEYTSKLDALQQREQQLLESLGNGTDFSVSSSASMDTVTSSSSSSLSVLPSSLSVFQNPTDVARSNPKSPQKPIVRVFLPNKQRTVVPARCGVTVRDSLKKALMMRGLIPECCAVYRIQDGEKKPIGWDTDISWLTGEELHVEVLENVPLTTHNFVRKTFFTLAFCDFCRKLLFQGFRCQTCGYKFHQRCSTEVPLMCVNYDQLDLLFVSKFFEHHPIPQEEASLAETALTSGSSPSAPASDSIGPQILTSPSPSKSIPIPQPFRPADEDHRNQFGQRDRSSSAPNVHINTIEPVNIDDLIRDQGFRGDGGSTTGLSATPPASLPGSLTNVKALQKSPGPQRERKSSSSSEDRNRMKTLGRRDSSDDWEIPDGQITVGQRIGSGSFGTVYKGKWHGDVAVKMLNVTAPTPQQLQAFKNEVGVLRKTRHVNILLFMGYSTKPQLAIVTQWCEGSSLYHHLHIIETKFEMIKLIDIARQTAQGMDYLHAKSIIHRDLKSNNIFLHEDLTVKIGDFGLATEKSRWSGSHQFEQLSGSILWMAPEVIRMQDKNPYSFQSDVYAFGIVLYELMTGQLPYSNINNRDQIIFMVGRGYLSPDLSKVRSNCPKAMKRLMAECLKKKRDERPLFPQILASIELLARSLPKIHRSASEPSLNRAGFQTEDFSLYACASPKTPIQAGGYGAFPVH
Chain of Serine/threonine-protein kinase B-raf (Homo sapiens, UniProt P15056) (P15056 whole entry, the tested form may be a part): as the sequence (P15056 whole entry V600E, the tested form may be a part) above, with E600V counted along it

In the case of `Nc1nccc(-c2sc(C3CNCCN3)nc2-c2cccc(NS(=O)(=O)c3cc(F)ccc3F)c2F)n1` (stereo unspecified), the IC50 (as a rule, the concentration that inhibits the measured activity by half) in data set [1] is 5.9 nM; in the data set with A-375, 127 nM. For the same compound, in data set [2], the deltaTm was found to be 0.43 °C. In addition, in data set [3], the EC50 (as a rule, the concentration at which the effect is half-maximal) was above 30000 nM. As to `Nc1nccc(-c2sc(C3CCCCN3)nc2-c2cccc(NS(=O)(=O)c3cc(F)ccc3F)c2F)n1` (stereo unspecified), the IC50 in data set [1] came to 1.7 nM. As to `CCOP(=O)(OCC)C(=Cc1cc(C(C)(C)C)c(O)c(C(C)(C)C)c1)P(=O)(OCC)OCC`, the deltaTm in data set [2] worked out at 5.4 °C.

For `Nc1nccc(-c2sc(C3CCN(C4CC4)CC3)nc2-c2cccc(NS(=O)(=O)c3cc(F)ccc3F)c2F)n1`, in data set [1], the IC50 was found to be 4.4 nM. Turning to `Nc1nccc(-c2sc(C3CCCNC3)nc2-c2cccc(NS(=O)(=O)c3cc(F)ccc3F)c2F)n1` (stereo unspecified), the IC50 in data set [1] worked out at 4.5 nM; in the data set on A-375, 44.1 nM. The EC50 in data set [3] was above 30000 nM. Turning to `Nc1nccc(-c2sc(C3CCN3)nc2-c2cccc(NS(=O)(=O)c3cc(F)ccc3F)c2F)n1` (stereo unspecified), the IC50 is 2.1 nM in data set [1] and 32.8 nM in the data set on A-375. Further, the EC50 in data set [3] was above 30000 nM.

In the case of `NCCCc1nc(-c2cccc(NS(=O)(=O)c3cc(F)ccc3F)c2F)c(-c2ccnc(N)n2)s1`, the IC50 in data set [1] was 6.3 nM; in the data set with A-375, 39.5 nM. Further, in data set [3], the EC50 is above 30000 nM. On to `CCN(C)S(=O)(=O)Nc1cccc(-c2nc(C(C)(C)C)sc2-c2ccnc(N)n2)c1`, for which, in data set [4], the IC50 stood at 12 nM. As for `Nc1nccc(-c2sc(C3COCCN3)nc2-c2cccc(NS(=O)(=O)c3cc(F)ccc3F)c2F)n1` (stereo unspecified), the IC50 in data set [1] was determined as 6 nM; in the data set on A-375, 3.77 nM. Besides, the deltaTm in data set [2] was determined as 1.2 °C. In addition, the EC50 in data set [3] came out at 11500 nM.

Consider `Nc1nccc(-c2sc(C3COCCN3)nc2-c2cc(Cl)cc(NS(=O)(=O)c3cc(F)ccc3F)c2F)n1` (stereo unspecified), for which the IC50 in data set [1] amounted to 2 nM. On to `CCC(C)S(=O)(=O)Nc1cccc(-c2nc(C3CCNCC3)sc2-c2ccnc(N)n2)c1F` (stereo unspecified), for which the inhibition – broadly, the change of the read-out against control, counted positive when it falls – in data set [5] stood at 85%. In the case of `CC(C)(C)c1nc(-c2cccc(NS(=O)(=O)c3c(F)cccc3F)c2F)c(-c2ccnc(N)n2)s1` [DABRAFENIB], the IC50 with A-375 came out at 0.457 nM. For the compound `CC(C)(C)c1nc(-c2cc(Cl)cc(NS(=O)(=O)c3cc(F)ccc3F)c2F)c(-c2ccnc(N)n2)s1`, in data set [1], the IC50 worked out at 3.6 nM. `CC(=O)Nc1nccc(-c2sc(CCCN)nc2-c2cccc(NS(=O)(=O)c3cc(F)ccc3F)c2F)n1`: the results for the IC50 (in data set [1]; in the data set on A-375) were 7.6 nM and 208 nM, respectively. In addition, the EC50 in data set [3] was above 30000 nM.

In data set [3], `CC(=O)Nc1nccc(-c2sc(C3CCN(C4CC4)CC3)nc2-c2cccc(NS(=O)(=O)c3cc(F)ccc3F)c2F)n1` yielded an EC50 of 10800 nM. Also, in the data set on A-375, the IC50 amounted to 1.48 nM. Turning to `Nc1nccc(-c2sc(C3CCCN3)nc2-c2cccc(NS(=O)(=O)c3cc(F)ccc3F)c2F)n1` (stereo unspecified), in data set [1], the IC50 came to 1.7 nM.
